What all share (assay type): in vivo
Series [1] concerns Aphis craccivora. Kind of series: B.2 Cowpea aphid spray test on potted cowpea plants. Particulars: sprayed plants, assessed after 24, 72 and 120 hours, read-out: mortality in comparison with untreated controls. As to the method: B.2 Cowpea Aphid (Aphis craccivora)
Potted cowpea plants colonized with approximately 100-150 aphids of various stages were sprayed after the pest population had been recorded. Population reduction was assessed after 24, 72, and 120 hours.

Series [2] relates to Plutella xylostella. Kind of series: B.3 Diamond back moth leaf dip test on Chinese cabbage. Particulars: foliar, recorded 24, 72 and 120 hours after treatment, read-out: mortality in comparison with untreated controls. As to the method: B.3 Diamond Back Moth (Plutella xylostella)
Leaves of Chinese cabbage were dipped in test solution and air-dried. Treated leaves were placed in petri dished lined with moist filter paper. Mortality was recorded 24, 72, and 120 hours after treatment.

Series [3] relates to Myzus persicae. Briefly: B.4 Green peach aphid systemic test, artificial diet in 96-well plates. The note with it: 72 h, 3 days, read-out: mortality in comparison with untreated controls. From the text:
B.4 Green Peach Aphid (Myzus persicae)
For evaluating control of green peach aphid (Myzus persicae) through systemic means the test unit consisted of 96-well-microtiter plates containing liquid artificial diet under an artificial membrane.
The compounds were formulated using a solution containing 75% v/v water and 25% v/v DMSO. Different concentrations of formulated compounds were pipetted into the aphid diet, using a custom built pipetter, at two replications.
After application, 5-8 adult aphids were placed on the artificial membrane inside the microtiter plate wells. The aphids were then allowed to suck on the treated aphid diet and incubated at about 23±1° C. and about 50±5% relative humidity for 3 days. Aphid mortality and fecundity was then visually assessed.

In series [4] the test system is Ceratitis capitata. Kind of series: B.5 Mediterranean fruitfly microtiter plate diet test. The note with it: 120 h, Mediterranean fruitfly eggs and larvae on diet, 5 days, read-out: mortality in comparison with untreated controls. The procedure: B.5 Mediterranean Fruitfly (Ceratitis capitata)
For evaluating control of Mediterranean fruitfly (Ceratitis capitata) the test unit consisted of microtiter plates containing an insect diet and 50-80 C. capitata eggs.
The compounds were formulated using a solution containing 75% v/v water and 25% v/v DMSO. Different concentrations of formulated compounds were sprayed onto the insect diet at 5 μl, using a custom built micro atomizer, at two replications.
(§1) After application, microtiter plates were incubated at about 28±1° C. and about 80±5% relative humidity for 5 days. Egg and larval mortality was then visually assessed.

Series [5] has as its system Dichromothrips corbetti. Kind of series: B.6 Orchid thrips floral-immersion test. The note with it: 96 h, orchid thrips adults, 4 days, read-out: mortality in comparison with untreated controls. The procedure:
B.6 Orchid Thrips (dichromothrips corbetti)
Dichromothrips corbetti adults used for bioassay were obtained from a colony maintained continuously under laboratory conditions. For testing purposes, the test compound was diluted to a concentration of 500 ppm (wt compound: vol diluent) in a 1:1 mixture of acetone:water (vol:vol), plus 0.01% vol/vol Kinetic® surfactant.
Thrips potency of each compound was evaluated by using a floral-immersion technique. Plastic petri dishes were used as test arenas. All petals of individual, intact orchid flowers were dipped into treatment solution and allowed to dry. Treated flowers were placed into individual petri dishes along with 10-15 adult thrips. The petri dishes were then covered with lids. All test arenas were held under continuous light and a temperature of about 28° C. for duration of the assay. After 4 days, the numbers of live thrips were counted on each flower, and along inner walls of each petri dish. The level of thrips mortality was extrapolated from pre-treatment thrips numbers.

Series [6] has as its system Heliothis virescens. Kind of series: B.11 Tobacco budworm I microtiter plate diet test. Particulars: 120 h, tobacco budworm eggs and larvae on diet, 5 days, read-out: mortality in comparison with untreated controls. As to the method: B.11 Tobacco Budworm (Heliothis virescens) I
For evaluating control of tobacco budworm (Heliothis virescens) the test unit consisted of 96-well-microtiter plates containing an insect diet and 15-25 H. virescens eggs.
The compounds were formulated using a solution containing 75% v/v water and 25% v/v DMSO. Different concentrations of formulated compounds were sprayed onto the insect diet at 10 μl, using a custom built micro atomizer, at two replications.
as §1

The subject of series [7] is Anthonomus grandis. Kind of series: B.12 Boll weevil microtiter plate diet test. Particulars: 120 h, boll weevil eggs and larvae on diet, 5 days, read-out: mortality in comparison with untreated controls. The procedure: B.12 Boll Weevil (Anthonomus grandis)
For evaluating control of boll weevil (Anthonomus grandis) the test unit consisted of 24-well-microtiter plates containing an insect diet and 20-30 A. grandis eggs.
The compounds were formulated using a solution containing 75% v/v water and 25% v/v DMSO. Different concentrations of formulated compounds were sprayed onto the insect diet at 20 μl, using a custom built micro atomizer, at two replications.
After application, microtiter plates were incubated at about 23±1° C. and about 50±5% relative humidity for 5 days. Egg and larval mortality was then visually assessed.

For series [8], the system named is bemisia argentifolii. Kind of series: B.8 Silverleaf whitefly spray test on cotton plants. Particulars: 300 ppm; silverleaf whitefly adults on sprayed cotton; 3 days. From the text: B.8 Silverleaf Whitefly (bemisia argentifolii)
The active compounds were formulated in cyclohexanone as a 10,000 ppm solution supplied in tubes. The tubes were inserted into an automated electrostatic sprayer equipped with an atomizing nozzle and they served as stock solutions for which lower dilutions were made in 50% acetone:50% water (v/v). A nonionic surfactant (Kinetic®) was included in the solution at a volume of 0.01% (v/v).
Cotton plants at the cotyledon stage (one plant per pot) were sprayed by an automated electrostatic plant sprayer equipped with an atomizing spray nozzle. The plants were dried in the sprayer fume hood and then removed from the sprayer. Each pot was placed into a plastic cup and about 10 to 12 whitefly adults (approximately 3-5 days old) were introduced. The insects were collected using an aspirator and a nontoxic Tygon® tubing connected to a barrier pipette tip. The tip, containing the collected insects, was then gently inserted into the soil containing the treated plant, allowing insects to crawl out of the tip to reach the foliage for feeding. Cups were covered with a reusable screened lid. […] Mortality was assessed 3 days after treatment, compared to untreated control plants.

One may read the mortality as the percentage killed. In the case of `O=C(NCC(F)(F)F)N/N=C/c1ccc(N2CC(c3cc(Cl)cc(Cl)c3)(C(F)(F)F)OC2=O)cc1Cl` (centres unmarked) [Compound 3-1, 1-[(E)-[2-chloro-4-[5-(3,5-dichlorophenyl)-2-oxo-5-(trifluoromethyl)oxazolidin-3-yl]phenyl]methyleneamino]-3-(2,2,2-trifluoroethyl)urea], the mortality at 500 ppm in series [1], in series [2] and in series [5] was no less than 75% each time. For the same compound, the mortality at 2500 ppm in series [3], in series [4], in series [6] and in series [7] was no less than 75% throughout.
On to `CNC(=O)NN=Cc1ccc(N2CCC(c3cc(Cl)cc(Cl)c3)(C(F)(F)F)C2)cc1Cl` (centres unmarked) [Compound 2-4], for which the “mortality in comparison with untreated controls” value in series [8] is on record as “at least 75%”.

(Values after patent US20130184320A1, “Imine Compounds” (BASF SE, priority 2010, published 2013).)
